Laboratory results as given in ChEMBL document CHEMBL3044875, “Synthesis and antimicrobial activity of some bisoctahydroxanthene-1,8-dione derivatives” (2011).
Activity calls are given as the source filed them. The calls are words filed in the database; no cut-off is given here.

What was measured:
Aspergillus niger [1] = experiment: Antifungal activity against Aspergillus niger ATCC 10949 at 40 ug/disk after 72 hr by disk diffusion method; format: functional, organism-based
Aspergillus niger [2] = experiment: Antifungal activity against Aspergillus niger ATCC 10949 at 20 ug/disk after 72 hr by disk diffusion method; format: functional, organism-based
Rhodotorula mucilaginosa [3] = experiment: Antifungal activity against Rhodotorula mucilaginosa at 140 ug/disk after 48 hr by disk diffusion method; format: functional; details: for zone of inhibition at 140 µg/disc: read-out: DIZ
Rhodotorula mucilaginosa [4] = experiment: Antifungal activity against Rhodotorula mucilaginosa at 20 ug/disk after 48 hr by disk diffusion method; format: functional
Rhodotorula mucilaginosa [5] = experiment: Antifungal activity against Rhodotorula mucilaginosa at 40 ug/disk after 48 hr by disk diffusion method; format: functional; details: for zone of inhibition at 40 µg/disc: read-out: DIZ
Candida albicans [6] = experiment: Antifungal activity against Candida albicans ATCC 10231 at 140 ug/disk after 48 hr by disk-diffusion method; format: functional; details: ATCC 10231, 48 h, read-out: DIZ
Candida albicans [7] = experiment: Antifungal activity against Candida albicans ATCC 10231 at 40 ug/disk after 48 hr by disk-diffusion method; format: functional; details: ATCC 10231, 48 h, read-out: DIZ
Candida albicans [8] = experiment: Antifungal activity against Candida albicans ATCC 10231 at 20 ug/disk after 48 hr by disk-diffusion method; format: functional; details: for zone of inhibition at 20 µg/disc: ATCC 10231, 48 h, read-out: DIZ
Proteus vulgaris [9] = experiment: Antibacterial activity against Proteus vulgaris NRRL-B-123 at 140 ug/disk after 24 hr by disk diffusion method; format: functional, organism-based
Aspergillus niger [10] = experiment: Antifungal activity against Aspergillus niger ATCC 10949 at 140 ug/disk after 72 hr by disk diffusion method; format: functional; details: for zone of inhibition at 140 µg/disc: ATCC 10949, 72 h, read-out: DIZ
Proteus vulgaris [11] = experiment: Antibacterial activity against Proteus vulgaris NRRL-B-123 at 40 ug/disk after 24 hr by disk diffusion method; format: functional, organism-based
Proteus vulgaris [12] = experiment: Antibacterial activity against Proteus vulgaris NRRL-B-123 at 20 ug/disk after 24 hr by disk diffusion method; format: functional, organism-based
Pseudomonas aeruginosa [13] = experiment: Antibacterial activity against Pseudomonas aeruginosa ATCC 27853 at 140 ug/disk after 24 hr by disk-diffusion method; format: functional, organism-based
Pseudomonas aeruginosa [14] = experiment: Antibacterial activity against Pseudomonas aeruginosa ATCC 27853 at 40 ug/disk after 24 hr by disk-diffusion method; format: functional, organism-based
Pseudomonas aeruginosa [15] = experiment: Antibacterial activity against Pseudomonas aeruginosa ATCC 27853 at 20 ug/disk after 24 hr by disk-diffusion method; format: functional, organism-based
Escherichia coli [16] = experiment: Antibacterial activity against Escherichia coli ATCC 25922 at 40 ug/disk after 24 hr by disk-diffusion method; format: functional
Escherichia coli [17] = experiment: Antibacterial activity against Escherichia coli ATCC 25922 at 140 ug/disk after 24 hr by disk-diffusion method; format: functional
Nocardia [18] = experiment: Antibacterial activity against Nocardia canis at 140 ug/disk after 24 hr by disk diffusion method; format: functional
Escherichia coli [19] = experiment: Antibacterial activity against Escherichia coli ATCC 25922 at 20 ug/disk after 24 hr by disk-diffusion method; format: functional
Nocardia [20] = experiment: Antibacterial activity against Nocardia canis at 40 ug/disk after 24 hr by disk diffusion method; format: functional
Nocardia [21] = experiment: Antibacterial activity against Nocardia canis at 20 ug/disk after 24 hr by disk diffusion method; format: functional, organism-based
[22] = system: Staphylococcus epidermidis; experiment: Antibacterial activity against Staphylococcus epidermidis ATCC 12228 at 140 ug/disk after 24 hr by disk diffusion method; format: functional
[23] = system: Staphylococcus epidermidis; experiment: Antibacterial activity against Staphylococcus epidermidis ATCC 12228 at 40 ug/disk after 24 hr by disk diffusion method; format: functional
[24] = system: Staphylococcus epidermidis; experiment: Antibacterial activity against Staphylococcus epidermidis ATCC 12228 at 20 ug/disk after 24 hr by disk diffusion method; format: functional, organism-based
Bacillus cereus [25] = experiment: Antibacterial activity against Bacillus cereus NRRL 3711 at 140 ug/disk after 24 hr by disk diffusion method; format: functional; details: for zone of inhibition at 140 µg/disc: NRRL 3711, 24 h, read-out: DIZ
Bacillus cereus [26] = experiment: Antibacterial activity against Bacillus cereus NRRL 3711 at 40 ug/disk after 24 hr by disk diffusion method; format: functional; details: for zone of inhibition at 40 µg/disc: NRRL 3711, 24 h, read-out: DIZ
Bacillus cereus [27] = experiment: Antibacterial activity against Bacillus cereus NRRL 3711 at 20 ug/disk after 24 hr by disk diffusion method; format: functional; details: for zone of inhibition at 20 µg/disc: NRRL 3711, 24 h, read-out: DIZ
Staphylococcus aureus [28] = experiment: Antibacterial activity against Staphylococcus aureus ATCC 25923 at 140 ug/disc after 24 hr by disk diffusion method; format: functional
Staphylococcus aureus [29] = experiment: Antibacterial activity against Staphylococcus aureus ATCC 25923 at 40 ug/disc after 24 hr by disk diffusion method; format: functional
Staphylococcus aureus [30] = experiment: Antibacterial activity against Staphylococcus aureus ATCC 25923 at 20 ug/disc after 24 hr by disk diffusion method; format: functional
[31] = ATCC 25923, 24 h, read-out: DIZ

Structure (SMILES)	diameter of the inhibition zone (DIZ) (Aspergillus niger [1])	diameter of the inhibition zone (DIZ) (Aspergillus niger [2])	zone of inhibition at 140 µg/disc (Rhodotorula mucilaginosa [3]) [mm]	diameter of the inhibition zone (DIZ) (Rhodotorula mucilaginosa [4])	zone of inhibition at 140 µg/disc (Candida albicans [6]) [mm]	zone of inhibition at 40 µg/disc (Candida albicans [7]) [mm]	diameter of the inhibition zone (DIZ) (Proteus vulgaris [9])	diameter of the inhibition zone (DIZ) (Proteus vulgaris [11])	diameter of the inhibition zone (DIZ) (Proteus vulgaris [12])	diameter of the inhibition zone (DIZ) (Pseudomonas aeruginosa [13])	diameter of the inhibition zone (DIZ) (Pseudomonas aeruginosa [14])	diameter of the inhibition zone (DIZ) (Pseudomonas aeruginosa [15])	diameter of the inhibition zone (DIZ) (Escherichia coli [16])	diameter of the inhibition zone (DIZ) (Escherichia coli [17])	diameter of the inhibition zone (DIZ) (Nocardia [18])	diameter of the inhibition zone (DIZ) (Escherichia coli [19])	diameter of the inhibition zone (DIZ) (Nocardia [20])	diameter of the inhibition zone (DIZ) (Nocardia [21])	diameter of the inhibition zone (DIZ) [23]	diameter of the inhibition zone (DIZ) [24]	other results
O=C1CCCC2=C1C(c1cccc(C3C4=C(CCCC4=O)OC4=C3C(=O)CCC4)c1)C1=C(CCCC1=O)O2	inactive	inactive	9	inactive	7	7	inactive	inactive	inactive	inactive	inactive	inactive	inactive	inactive	inactive	inactive	inactive	inactive	inactive	inactive	zone of inhibition at 40 µg/disc (Rhodotorula mucilaginosa [5]): 7 mm; diameter of the inhibition zone (DIZ) (Candida albicans [8]): inactive; zone of inhibition at 140 µg/disc (Aspergillus niger [10]): 7 mm; diameter of the inhibition zone (DIZ) [22]: inactive; zone of inhibition at 140 µg/disc (Bacillus cereus [25]): 8 mm; zone of inhibition at 40 µg/disc (Bacillus cereus [26]): 10 mm; zone of inhibition at 20 µg/disc (Bacillus cereus [27]): 8 mm; diameter of the inhibition zone (DIZ) (Staphylococcus aureus [28]): inactive; diameter of the inhibition zone (DIZ) (Staphylococcus aureus [29]): inactive; diameter of the inhibition zone (DIZ) (Staphylococcus aureus [30]): inactive
COc1ccc(C2CC(=O)C3=C(C2)OC2=C(C(=O)CC(c4ccc(OC)c(OC)c4)C2)C3c2ccc(C3C4=C(CC(c5ccc(OC)c(OC)c5)CC4=O)OC4=C3C(=O)CC(c3ccc(OC)c(OC)c3)C4)cc2)cc1OC (stereo not given)	inactive	inactive		inactive	7	7	inactive	inactive	inactive	inactive	inactive	inactive	inactive	inactive	inactive	inactive	inactive	inactive	inactive	inactive	diameter of the inhibition zone (DIZ) (Rhodotorula mucilaginosa [3]): inactive; diameter of the inhibition zone (DIZ) (Rhodotorula mucilaginosa [5]): inactive; diameter of the inhibition zone (DIZ) (Candida albicans [8]): inactive; diameter of the inhibition zone (DIZ) (Aspergillus niger [10]): inactive; diameter of the inhibition zone (DIZ) [22]: inactive; diameter of the inhibition zone (DIZ) (Bacillus cereus [25]): inactive; diameter of the inhibition zone (DIZ) (Bacillus cereus [26]): inactive; diameter of the inhibition zone (DIZ) (Bacillus cereus [27]): inactive; diameter of the inhibition zone (DIZ) (Staphylococcus aureus [28]): inactive; diameter of the inhibition zone (DIZ) (Staphylococcus aureus [29]): inactive; diameter of the inhibition zone (DIZ) (Staphylococcus aureus [30]): inactive
O=C1CC(c2ccccc2)CC2=C1C(c1cccc(C3C4=C(CC(c5ccccc5)CC4=O)OC4=C3C(=O)CC(c3ccccc3)C4)c1)C1=C(CC(c3ccccc3)CC1=O)O2 (stereo not given)	inactive	inactive	7	inactive	8	8	inactive	inactive	inactive	inactive	inactive	inactive	inactive	inactive	inactive	inactive	inactive	inactive	inactive	inactive	diameter of the inhibition zone (DIZ) (Rhodotorula mucilaginosa [5]): inactive; zone of inhibition at 20 µg/disc (Candida albicans [8]): 7 mm; diameter of the inhibition zone (DIZ) (Aspergillus niger [10]): inactive; diameter of the inhibition zone (DIZ) [22]: inactive; zone of inhibition at 140 µg/disc (Bacillus cereus [25]): 12 mm; zone of inhibition at 40 µg/disc (Bacillus cereus [26]): 11 mm; zone of inhibition at 20 µg/disc (Bacillus cereus [27]): 8 mm; diameter of the inhibition zone (DIZ) (Staphylococcus aureus [28]): inactive; diameter of the inhibition zone (DIZ) (Staphylococcus aureus [29]): inactive; diameter of the inhibition zone (DIZ) (Staphylococcus aureus [30]): inactive
O=C1CC(c2ccccc2)CC2=C1C(c1ccc(C3C4=C(CC(c5ccccc5)CC4=O)OC4=C3C(=O)CC(c3ccccc3)C4)cc1)C1=C(CC(c3ccccc3)CC1=O)O2 (stereo not given)	inactive	inactive	7	inactive	8	8	inactive	inactive	inactive	inactive	inactive	inactive	inactive	inactive	inactive	inactive	inactive	inactive	inactive	inactive	diameter of the inhibition zone (DIZ) (Rhodotorula mucilaginosa [5]): inactive; zone of inhibition at 20 µg/disc (Candida albicans [8]): 7 mm; diameter of the inhibition zone (DIZ) (Aspergillus niger [10]): inactive; diameter of the inhibition zone (DIZ) [22]: inactive; zone of inhibition at 140 µg/disc (Bacillus cereus [25]): 10 mm; zone of inhibition at 40 µg/disc (Bacillus cereus [26]): 10 mm; zone of inhibition at 20 µg/disc (Bacillus cereus [27]): 8 mm; diameter of the inhibition zone (DIZ) (Staphylococcus aureus [28]): inactive; diameter of the inhibition zone (DIZ) (Staphylococcus aureus [29]): inactive; diameter of the inhibition zone (DIZ) (Staphylococcus aureus [30]): inactive
O=C1CCCC2=C1C(c1ccc(C3C4=C(CCCC4=O)OC4=C3C(=O)CCC4)cc1)C1=C(CCCC1=O)O2	inactive	inactive	10		8	8	inactive	inactive	inactive	inactive	inactive	inactive	inactive	inactive	inactive	inactive	inactive	inactive	inactive	inactive	zone of inhibition at 20 µg/disc (Rhodotorula mucilaginosa [4]; read-out: DIZ): 8 mm; zone of inhibition at 40 µg/disc (Rhodotorula mucilaginosa [5]): 9 mm; zone of inhibition at 20 µg/disc (Candida albicans [8]): 7 mm; zone of inhibition at 140 µg/disc (Aspergillus niger [10]): 7 mm; zone of inhibition at 140 µg/disc ([22]; ATCC 12228, 24 h, read-out: DIZ): 7 mm; zone of inhibition at 140 µg/disc (Bacillus cereus [25]): 8 mm; zone of inhibition at 40 µg/disc (Bacillus cereus [26]): 9 mm; zone of inhibition at 20 µg/disc (Bacillus cereus [27]): 8 mm; zone of inhibition at 140 µg/disc (Staphylococcus aureus [28]; [31]): 14 mm; zone of inhibition at 40 µg/disc (Staphylococcus aureus [29]; [31]): 10 mm; zone of inhibition at 20 µg/disc (Staphylococcus aureus [30]; [31]): 8 mm
